# Laboratory results from US20220133894A1, “BISPHOSPHONATE-LINKED COMPOUNDS” (OREGON HEALTH & SCIENCE UNIVERSITY, priority 2019, published 2022).
# Columns and labels:
# [1] = tested on: VCaP cells; test: SRB growth inhibition assay, VCaP; assay type: cell-based, human; details: 10 μM enzalutamide, 10 μM KBU2046 added to control or enzalutamide treated cells, 72 hours
# Procedure: (§1) LNCaP or VCaP cells cultured in hormone free media were treated with R1881 (R), KBU2046 (46) and/or enzalutamide (E). (FIGS. 3A and 3B) Effects on AR-responsive gene expression. PSA expression was measured by qRT/PCR, normalized to GAPDH and expressed as a percent of control cells (N=3 replicates); * denotes P<0.05 for groups separated by bar. (FIGS. 3C and 3D) Effects on cell growth. Three day growth assays were performed. Data are the number of viable cells, expressed as % of control (N=3 replicates); * P<0.05 compared to control. (E) Effects on AR activation. Western blots of nuclear (N) and cytoplasmic (C) preparations of cell extracts were probed for AR, laminin 1 or α-tubulin. (FIGS. 3F and 3G) Effects on tumor outgrowth after androgen deprivation therapy. LNCaP/AR-luc cells were implanted subcutaneously (N=6 mice/cohort) or orthotopic (N=15 mice/cohort were implanted; N=5 yielded tumors) into castrate mice, treatment with KBU2046 began as noted, and weekly IVIS imaging performed. Data are tumor size, expressed as luminescence intensity. All data are expressed as mean±SEM.
# (§2) Enzalutamide mediated growth inhibition was assessed using Sulforhodamine B (SRB) growth inhibition assays, were performed as previously described (49). In brief, LNCaP and VCaP cells were pre-incubated in charcoal-striped medium for 48 hours and then seeded (1.9×10^4) in 96-well plates. […]
# [2] = tested on: LNCaP cells; test: SRB growth inhibition assay, LNCaP; assay type: cell-based, human; details: 10 μM enzalutamide, 10 μM KBU2046 added to control or enzalutamide treated cells, 72 hours
# Procedure: as §1, §2
# [3] = tested on: prostate specific antigen (PSA); test: PSA expression by qRT/PCR in LNCaP cells; assay type: cell-based, human; details: LNCaP cells in androgen depleted media
# Procedure: (§3) Cells were cultured in media depleted of androgen and after a washout of 72 hrs were treated with the synthetic androgen R1881, KBU2046, enzalutamide and/or vehicle (control), and resultant effects upon induction of the androgen-responsive gene, prostate specific antigen (PSA) were measured (FIG. 3A).
# as §1
# (§4) RNA was isolated and qRT/PCR performed as previously described by us (Ding et al., J Biomol Tech 18, 321-330 (2007)). Resultant data were analyzed using the 2^−ΔΔt method (Livak et al., Methods 25, 402-408 (2001)), normalized to GAPDH, for the following primer/probe sets (ABI) PSA (Hs02576345_m1) and GAPDH (Hs99999905_m1). Assays were performed in triplicate, and were repeated.
# [4] = tested on: prostate specific antigen (PSA); test: PSA expression by qRT/PCR in VCaP cells; assay type: cell-based, human; details: VCaP cells in androgen depleted media
# Procedure: as §3, §1, §4
# [5] = tested on: PC3-M-luc cells; test: PCa orthotopic implantation, primary tumor growth and lung metastasis; assay type: in vivo, mice
# Procedure: To assess the efficacy of a spectrum of docetaxel concentrations, mice received orthotopic implants of PC3-M-luc cells, were treated with 0, 10 or 20 mg/kg docetaxel, and tumor growth monitored with weekly IVIS imaging. […] Subsequently, mice with orthotopic implants of PC3-M-luc cells were treated with docetaxel, KBU2046, docetaxel+KBU2046 or vehicle, as denoted, and effects on primary tumor growth and lung metastasis quantified (FIGS. 2A, 2B, and 2C).
# Cohorts of N=10 mice bearing orthotopic implants of PC3-M-luc cells were treated daily with 150 mg/kg KUB2046 (46), intraperitoneal docetaxel 7.5 mg/kg weekly (doc), the combination (doc+46), or with oral and intraperitoneal vehicle (CO). KBU2046 treatment began 3 days before implantation and docetaxel began 1 week after. (A) Lung metastasis measured by qPCR for human Alu sequences, expressed as percent control (B) Weekly IVIS imaging of tumor. (C) Tumor weight. * denotes P<0.05 for differences between cohorts denoted by bars. All data are mean±SEM.
# PCa orthotopic implantation: Orthotopic implantation of 2.5×10^5 PC3M-luc into 7-8 week old male athymic mice was performed as previously described by us (5, 52 Xu et al., above; and Pavese et al., J Vis Exp, e50873 (2013)). Daily oral gavage treatment with 150 mg/kg KBU2046 or was initiated 3 days prior to implantation and continued throughout the duration of the study. Weekly IP injections with 7.5 mg/kg docetaxel or control were administered beginning one week post implantation. Primary tumor out growth was monitored via weekly IVIS imaging. At the completion of the study the primary tumor was resected and weighed and lungs were resected and snap frozen. To determine the human PCa metastatic burden in each mouse lung, the snap frozen tissue was pulverized, DNA isolated and Alu-sequencing performed as previously described (19). […] (SEQ ID NO: 3). The 144RH probe was labeled with a 5′ fluorescent reporter (6-FAM) and a 3′ fluorescent quencher (Black Hole Quencher). The relative content of human DNA was calculated with using the comparative CT method, CT (sample)-CT(negative control). All samples were run in triplicate and were repeated.
# [6] = tested on: PC3-M cells; test: PCa subcutaneous implantation, tumor growth; assay type: in vivo; details: oral 80 mg KBU2046/kg, weekly intraperitoneal docetaxel 20 mg/kg, KBU2046 added to control or docetaxel treated mice
# Procedure: FIG. 1A depicts the effect of chemotherapy on the growth of androgen independent PC3-M PCa cells in vitro. Data are the mean±SEM (N=3 replicates) of cell viability in a 3 day growth assay in the presence of 10 μM KBU2046 or vehicle (control) treated with docetaxel or cabazitaxel. FIG. 1B depicts the effect of chemotherapy on the growth of androgen independent PCa cells in vivo. Mice received subcutaneous implants of PC3-M cells, were monitored until tumors were detectable (250 mm^3), and then treated daily with oral 80 mg KBU2046/kg (46) or vehicle (CO) and with weekly intraperitoneal docetaxel (doc) at 0 or 20 mg/kg, beginning on day 1, and tumor size measured. Data are mean±SEM, with N=20 mice per cohort.
# PCa subcutaneous implantation: 2.5×10^5 PC3-M cells in sterile PBS were implanted into the right flank of 6-7 week old male athymic nude mice (Charles River) and tumor growth measurements were performed twice a week as previously described by us (Gordon et al., Chemotherapy-induced monoamine oxidase expression in prostate carcinoma functions as a cytoprotective resistance enzyme and associates with clinical outcomes. PLoS One 9, e104271 (2014)). […] Tumor measurements were obtained in a blinded fashion, and tumor volumes were calculated with the following formula: length×(width)^2×0.5.
Compound,cell growth [1],cell growth [2],PSA expression [3],PSA expression [4],prostate tumor growth kinetics by weekly IVIS imaging ([5]; cohorts receiving docetaxel 7.5 mg/kg weekly vs not),"tumor growth by weekly IVIS imaging ([5]; orthotopic PC3-M-luc, 0, 10 or 20 mg/kg docetaxel, dose-dependent)","decrease of tumor weight compared to control ([5]; orthotopic PC3-M-luc, 150 mg/kg KBU2046 daily, docetaxel 7.5 mg/kg weekly) [%]","decrease of lung metastasis compared to control (human Alu qPCR) ([5]; orthotopic PC3-M-luc, 150 mg/kg KBU2046 daily, docetaxel 7.5 mg/kg weekly intraperitoneal) [%]",tumor growth [6]
CNC(=O)c1ccc(N2C(=S)N(c3ccc(C#N)c(C(F)(F)F)c3)C(=O)C2(C)C)cc1F [enzalutamide],significantly inhibited,significantly inhibited,decreased,decreased,,,,,
CC(=O)O[C@@]12CO[C@@H]1C[C@H](O)[C@@]1(C)C(=O)[C@H](O)C3=C(C)[C@@H](OC(=O)[C@H](O)[C@@H](NC(=O)OC(C)(C)C)c4ccccc4)C[C@@](O)([C@@H](OC(=O)c4ccccc4)[C@H]21)C3(C)C [docetaxel],,,,,slower growth,significantly inhibited,49,23,significantly inhibited
